Source: patent US10286084B2, “Compositions for the inactivation of virus replication and methods of making and using the same” (priority 2014, dated 2019)

Assays:
HPV-18 E6 gene = assay: Mutagenesis spectra: PCR, cloning and sequencing of HeLa genomic DNA; type: cell-based; conditions: Spy Cas9, 48 h post-transfection, of 234 DNA sequence reads
Description: (§1) HeLa cells were plated at 2.5×10^5 cells per well in 6-well plates and transfected using Fugene6 with a 3 to 1 ratio of RGN expression vector to pL/CMV/eGFP (pLCE) (Seedorf et al., 1987), which expresses eGFP, to determine transfection efficiency. Genomic DNA was extracted 48 hours post-transfection using a DNeasy kit (Qiagen) following the manufacturer's protocol. The genomic region surrounding the viral target sites was PCR amplified using GoTaq cocktail (Promega, #9PIM300) and then purified. PCR products were then denatured and reannealed to enable DNA heteroduplex formation: 95° C. for 10 min, 95° C. to 85° C. ramping at −1° C./sec, 85° C. to 25° C. at −0.25° C./sec, and 25° C. hold for 1 minute. After reannealing, products were treated with SURVEYOR nuclease and SURVEYOR enhancer S (Transgenomics) following the manufacturer's protocol, and analyzed on a 2% agarose gel. To determine the sequence spectra of the mutations introduced by HPV-18 E6- and E7-specific sgRNAs, we designed primers with unique restriction enzyme sites that bound sequences flanking the predicted RGN cleavage locations. The mutagenized HeLa genomic DNA was PCR amplified at 48 hours after transfection, cloned, sequenced, and aligned to the HeLa genome.
(§2) We next asked if we could inactivate the endogenous HPV-18 E6 and E7 genes integrated into the HeLa cell genome. As all four sgRNAs appeared to function equivalently, we focused our subsequent research on E6 sgRNA1 and E7 sgRNA1. To confirm these sgRNAs were indeed inducing the expected DNA cleavage, we used the SURVEYOR assay to determine if we could detect RGN-induced indels at the predicted Cas9 cleavage site. For this purpose, we transfected HeLa cells with a px330-based vector encoding Spy Cas9 (Cong et al., 2013) and an E6- or E7-specific sgRNA. At 48 hours post-transfection, we isolated the HeLa genomic DNA and PCR-amplified the regions of the HPV-18 genome containing either the E6 or E7 target site for Cas9. The resultant PCR fragment was then isolated, denatured and then re-annealed to produce a population of DNA heteroduplexes that were digested using SURVEYOR nuclease, which is predicted to cleave at any sites of Cas9-induced mutagenesis. […] To further characterize these mutations, we cloned the same PCR fragments derived from the HPV-18 E6 or E7 gene and then performed DNA sequencing across the predicted cleavage site located 3 bp 5′ to the Cas9 PAM sequence (Mali et al., 2013). Analysis of the HPV-18 E6 gene gave 234 DNA sequence reads, of which 19 bore an assortment of different deletion mutations while 34 contained the same insertion mutation of a single “A” residue 3 bp 5′ to the Spy Cas9 PAM motif. The remaining 181 samples analyzed contained the wildtype E6 sequence. […]

p53 and p21 expression = assay: Western blot of transfected HeLa cells for p53 and p21; type: cell-based, human; conditions: Spy Cas9, 48 h post-transfection
Description: (§3) Phenotypic analysis of RGNs in HeLa was performed using the Fugene6 transfection reagent as per the manufacturer's protocol. Cells were plated at 2.5×10^5 cells per well in 6-well plates and transfected with a 3 to 1 ratio of RGN expression vector to pLCE (a GFP-expressing plasmid included to determine transfection efficiency). SiHa cells were transfected with HPV-16-specific RGN expression vectors using Lipofectamine3000 (Clontech) using the manufacturer's protocol. Cells were then harvested and lysed in SDS/β-mercaptoethanol protein lysis buffer 48 hours post transfection. Lysates were subjected to electrophoresis on 4-20% SDS-polyacrylamide gels (Bio-Rad) and transferred to nitrocellulose membranes. The membranes were then probed in 5% milk-PBS-T (PBS, 0.1% Tween 20, 0.5% bovine serum albumin) with the following antibodies: anti-Flag (Sigma F1804), a rabbit Rev polyclonal antiserum (Malim et al., 1989), anti-β-actin (Santa Cruz S.C.-47778), anti-p53 (Santa Cruz S.C.-126), anti-p21 (Santa Cruz S.C.-397), and anti-Rb (BD Pharmigen 554136). The membranes were washed in PBS-T, incubated with a species-specific secondary antibody, and then washed again in PBS-T. The membranes were incubated with Western Bright Sirius Western blot detection kit (Advansta) and signals captured using GeneSnap and quantified using GeneTools (Syngene). […]

p53 effector protein p21 = assay: Western blot of transfected SiHa cells for p21; type: cell-based, human; conditions: SiHa (HPV-16) cells, Spy Cas9
Description: as §3, with “The membranes were then probed in 5% milk-PBS-T (PBS, 0.1% Tween 20, 0.5% bovine serum albumin) with the following antibodies: anti-Flag (Sigma F1804), a rabbit Rev polyclonal antiserum (Malim et al., 1989), anti-β-actin (Santa Cruz S.C.-47778), anti-p53 (Santa Cruz S.C.-126), anti-p21 (Santa Cruz S.C.-397), and anti-Rb (BD Pharmigen 554136).” left out
All the work described thus far used the HPV-18 transformed cervical carcinoma cell line HeLa. To extend these studies, we also analyzed the human SiHa cervical carcinoma cell line, which is transformed by HPV-16 (Seedorf et al., 1987), using sgRNAs specific for HPV-16 E6 and E7, which differ in sequence from HPV-18 E6 and E7. […]

HPV-18 E7 gene = assay: Mutagenesis spectra: PCR, cloning and sequencing of HeLa genomic DNA; type: cell-based; conditions: Spy Cas9, 48 h post-transfection, of 232 DNA sequences
Description: as §1, §2

Substance	DNA sequence reads bearing deletion mutations (HPV-18 E6 gene)	DNA sequence reads with insertion of a single A residue 3 bp 5′ to the PAM (HPV-18 E6 gene)	p53 and p21 expression (p53 and p21 expression)	p21 expression (p53 effector protein p21)	DNA sequences with deletion mutations adjacent to the predicted cleavage site (HPV-18 E7 gene)	DNA sequences with insertions of 1 or 2 bp (HPV-18 E7 gene)
E6 sgRNA1: Spy Cas9 sgRNA for HPV-18 E6, GGCGCTTTGAGGATCCAACA; SEQ ID NO: 8 (expressed or natural sequence)	19	34	specific induction of both p53 and p21 expression	failed to induce p21 expression	–	–
E7 sgRNA1: Spy Cas9 sgRNA for HPV-18 E7, GGAGCAATTAAGCGACTCAG; SEQ ID NO: 10 (expressed or natural sequence)	–	–	–	–	6	46
